Results published in ChEMBL document CHEMBL6153095, “Dihydroaurones and Isoflavan Derivatives from the Roots of Glycyrrhiza asymmetrica” (J Nat Prod, 2025).
Activity calls are given as the source filed them.

What was measured:
Assay type in all cases: functional, cell-based
[1] = tested on: MCF7; assay: Cytotoxicity against human MCF7 cells assessed as reduction in cell viability at 10 uM by MTT assay
[2] = tested on: HeLa; assay: Cytotoxicity against human HeLa cells assessed as reduction in cell viability at 10 uM by MTT assay
[3] = tested on: HepG2; assay: Cytotoxicity against human HepG2 cells assessed as reduction in cell viability at 10 uM by MTT assay
[4] = tested on: A549; assay: Cytotoxicity against human A549 cells assessed as reduction in cell viability at 10 uM by MTT assay

Measured: Activity

COc1cc(O)ccc1[C@H]1COc2cc(O)ccc2[C@H]1c1cc2c(c(CC=C(C)C)c1O)OC[C@@H](c1ccc(O)cc1O)C2
inactive: all assays above

CC(C)=CCc1c(O)ccc2c1OC[C@H](c1cc([C@@H]3c4ccc(O)c(CC=C(C)C)c4OC[C@@H]3c3ccc(O)cc3O)c(O)cc1O)C2
inactive: all assays above

CC(C)=CCc1cc([C@@H]2CC(=O)c3ccc(O)cc3O2)ccc1O
inactive: all assays above

CC1(C)CCc2c(ccc3c2OC[C@@H](c2ccc(O)cc2O)C3=O)O1
inactive: all assays above

COc1ccc([C@@H]2COc3c(ccc(O)c3CC=C(C)C)C2=O)c(O)c1
inactive: all assays above

CC(C)=CCc1cc([C@H]2Oc3cc(O)cc(O)c3C(=O)[C@@H]2O)ccc1O
inactive: all assays above

COc1ccc([C@@H]2COc3cc(O)ccc3C2)c(O)c1
inactive: all assays above

COc1ccc([C@H]2COc3c(ccc(O)c3CC=C(C)C)C2)c(O)c1
inactive: all assays above

CC(C)=CCc1c(O)cc(O)cc1/C=C/c1ccc(O)cc1
inactive: all assays above

CC(C)=CCc1c(O)ccc2c1OC[C@H](c1ccc(O)cc1O)C2
inactive: all assays above

CC1(C)CCc2c(ccc3c2OC[C@@H](c2ccc(O)cc2O)C3)O1
inactive: all assays above

COc1ccc(C[C@H]2Oc3cc(O)ccc3/C2=C/C(=O)O)cc1
inactive: all assays above

O=C(O)/C=C1/c2ccc(O)cc2O[C@@H]1Cc1ccc(O)cc1
inactive: all assays above

CC(C)=CCc1cc2c(cc1O)OC[C@H](c1ccc(O)cc1O)[C@@H]2c1cc([C@H]2COc3c(ccc(O)c3CC=C(C)C)C2)c(O)cc1O
inactive: all assays above

CC(C)=CCc1c(O)ccc([C@@H]2COc3c(ccc(O)c3CC=C(C)C)C2=O)c1O
inactive: all assays above

COc1ccc(-c2coc3c(CC=C(C)C)c(O)ccc3c2=O)cc1
inactive: all assays above

CC(C)(O)CCc1c(O)ccc2c1OC[C@H](c1ccc(O)cc1O)C2
inactive: all assays above

COc1ccc(-c2coc3cc(O)ccc3c2=O)cc1
inactive: all assays above

CC(C)=CCc1c(O)ccc2c1OC[C@@H](c1ccc(O)cc1O)C2=O
inactive: all assays above

CC(C)=CCc1cc([C@H]2Oc3cc(O)ccc3C(=O)[C@@H]2O)ccc1O
inactive: all assays above

CC(C)=CCc1c(O)ccc([C@@H]2COc3c(ccc(O)c3CC=C(C)C)C2)c1O
inactive: all assays above

COc1ccc(C2COc3cc4c(cc3C2)C=CC(C)(C)O4)c(O)c1 (configuration not stated)
inactive: all assays above

CC(C)=CCc1cc2c(cc1O)OC[C@H](c1ccc(O)cc1O)[C@@H]2c1cc2c(c(CC=C(C)C)c1O)OC[C@@H](c1ccc(O)cc1O)C2
inactive: all assays above
